Source: patent US6841718B2 (priority 2000, dated 2005)

Tested on: bacteria, yeast, algal and fungal spores, and invertebrate larvae
Assay: attachment of organisms

O=C(O)C=Cc1ccc(OS(=O)(=O)O)cc1 [Zosteric acid, para-(sulphooxy) cinnamic acid]
attachment of a wide range of organisms: inhibits attachment
